Some test systems named below: DU-145; NCI-H226; BT-549; HCT-15; TK-10; OVCAR-8; SNB-75; A498; Hs-578T; SN12C; HOP-92; NCI-H522; EKVX; NCI-H23; LOX IMVI; ACHN; KM12; SW-620; SK-OV-3; UACC-62.
Holding throughout (experiment): growth of human tumour cells (NCI), 48 h

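48-hour exposure; five concentrations; linearly interpolated endpoints. The concentration for 50% growth inhibition is given as GI50.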 Calls of active or inactive are those of the source. Cut-off read from the data, not from the text of the source: active = GI50 up to about 1.1 µM and inactive = higher. A value given as a limit tells only on which side of the number the result lay.

For `C=CCN1C[C@H](C)N([C@H](c2ccc(C(=O)NC(CC)CC)cc2)c2cccc(OC)c2)C[C@H]1C`, the GI50 is 81.8 µM (inactive) in the assay on DU-145; 70.5 µM (inactive) in the assay on NCI-H226; 29.1 µM (inactive) in the assay with BT-549; 29.4 µM in the assay with HCT-15; 66.4 µM (inactive) in the assay with TK-10; 62.5 µM (inactive) in the assay with OVCAR-8. For the same compound, the GI50 is > 100 µM (inactive) in the assay with SNB-75; 21.7 µM (inactive) in the assay on A498; > 100 µM (inactive) in the assay on Hs-578T; 36.8 µM (inactive) in the assay with SN12C; 31.7 µM (inactive) in the assay on HOP-92; 13.4 µM (inactive) with NCI-H522. The GI50 is 79.4 µM (inactive) with EKVX; 43.2 µM (inactive) in the assay with NCI-H23; 4.38 µM (inactive) in the assay on LOX IMVI; 33.9 µM (inactive) in the assay with ACHN; 37.7 µM (inactive) in the assay with KM12; 29.9 µM (inactive) in the assay with SW-620. Besides, the GI50 in the assay on SK-OV-3 was > 100 µM (inactive); in the assay with UACC-62, 20.8 µM (inactive).
In the case of `CCc1nc(N)nc(N)c1-c1ccc([N+](C)(C)C)cc1`, the GI50 in the assay with DU-145 was > 100 µM (inactive); with NCI-H226, > 100 µM (inactive); in the assay on BT-549, > 100 µM (inactive); in the assay on HCT-15, greater than 100 µM; in the assay with TK-10, > 100 µM (inactive); in the assay with OVCAR-8, > 100 µM (inactive). Moreover, the GI50 in the assay on SNB-75, in the assay on A498, in the assay with Hs-578T, in the assay with SN12C, with HOP-92 and with NCI-H522 was > 100 µM (inactive) each time. The GI50 in the assay with EKVX, with NCI-H23, in the assay on LOX IMVI, with ACHN, with KM12 and with SW-620 was > 100 µM (inactive) in each case. The GI50 in the assay with SK-OV-3 and in the assay on UACC-62 was > 100 µM (inactive) each time.
As to `Cc1cc(=O)oc2c(C3=NN(C=O)C(c4ccccc4)C3)c(O)ccc12` (stereo not given), the GI50 is > 100 µM (inactive) in the assay with DU-145; > 76 µM (inactive) with NCI-H226; 65.6 µM (inactive) in the assay on BT-549; greater than 78.5 µM with HCT-15; 57.4 µM (inactive) in the assay with TK-10; 71.1 µM (inactive) in the assay on OVCAR-8. In addition, the GI50 with SNB-75 was 3.22 µM (inactive); in the assay on A498, > 56.2 µM (inactive); in the assay with Hs-578T it was 31.2 µM (inactive); in the assay with SN12C, 90.2 µM (inactive); in the assay on HOP-92, 23 µM (inactive); in the assay with NCI-H522, 54 µM (inactive). The GI50 with EKVX is 72.6 µM (inactive); with NCI-H23, 85.9 µM (inactive); in the assay with LOX IMVI it was > 72.4 µM (inactive); with ACHN it was 14.8 µM (inactive); with KM12, > 100 µM (inactive); in the assay with SW-620, > 100 µM (inactive). For the same compound, the GI50 is 20.2 µM (inactive) in the assay on SK-OV-3 and 82.2 µM (inactive) in the assay with UACC-62.
In the case of `COc1ccccc1NC1Oc2cc3c(cc2C(c2cc(OC)c(OC)c(OC)c2)C1C)OCO3` (stereo not given), the GI50 in the assay on DU-145 was 4.75 µM (inactive); in the assay with NCI-H226, 4.35 µM (inactive); in the assay on BT-549, 2.84 µM (inactive); in the assay with HCT-15 it was 3.06 µM; with TK-10, > 100 µM (inactive); with OVCAR-8, 4.69 µM (inactive). In addition, the GI50 was 0.951 µM (active) in the assay on SNB-75; 4.9 µM (inactive) with A498; 6.44 µM (inactive) in the assay with Hs-578T; 5.57 µM (inactive) in the assay on SN12C; 3.24 µM (inactive) with HOP-92; 1.45 µM (inactive) in the assay on NCI-H522. Moreover, the GI50 was > 26.1 µM (inactive) with EKVX; 4.46 µM (inactive) in the assay on NCI-H23; 6.62 µM (inactive) with LOX IMVI; 9.91 µM (inactive) in the assay on ACHN; 1.43 µM (inactive) with KM12; 1.19 µM (inactive) in the assay on SW-620. Moreover, the GI50 with SK-OV-3 is 10.5 µM (inactive); in the assay with UACC-62, 1.53 µM (inactive).
